System: whole blood
Test: ROTEM blood coagulation analysis, blood collection tube with rubber stopper, Example 3
Type: cell-based, human
Conditions: heparan sulfate 1 μg/mL with calcium chloride, CTI 20 μg/mL, PKSI-527 40 μM (reagent (2))
Experimental: The present invention will be more specifically described below by referring to Examples, but the present invention is not limited to the embodiments below. The blood samples used in the Examples were collected from healthy humans unless otherwise described.
ROTEM (IL) was used to analyze blood coagulation.
Blood was collected using a blood collection tube (2 mL) containing 3.2% sodium citrate manufactured by Becton, Dickinson and Company. A rubber stopper is used for this blood collection tube. […]

Substance: heparan sulfate
- coagulation-promoting effect of the rubber stopper: can be inhibited

— patent US20240044921A1, “METHOD FOR EVALUATING BLOOD COAGULATION PERFORMANCE, AND METHOD FOR INSPECTING RISK OF THROMBOSIS” (FUJIMORI KOGYO CO., LTD., priority 2020, published 2024)
